Assay results from paper PMC10090446, “Population pharmacokinetic analysis and dosing optimization of polymyxin B in critically ill patients” (Frontiers in Pharmacology, 2023).
Positions of bridges follow the written chain, without caps; N, C: chain ends. Non-standard residues stand in square brackets, D forms with d. Residues, ends and D or L forms follow the SMILES beside them. *: point of attachment. X1 = CC[C@H](C)CCCCC(=O)*; Dab = NCC[C@H](N)C(=O)O

Experiment: Steady-state plasma concentrations of polymyxin B (total of B1, B2, B1-Ile) by LC-MS/MS
Assay type: in vivo
Conditions: human, iv, read-out: OUT (observed polymyxin B plasma concentration)
Text: We gather data from critically ill patients (≥18 years old) who were given intravenous drip polymyxin B treatment with blood concentration monitoring at the hospital from November 2021 to September 2022. The attending physician decided to administer polymyxin B. At the same time, patients who received continuous renal replacement therapy (CRRT) (n = 10) or extracorporeal membrane oxygenation (ECMO) (n = 2) at the time of blood collection were excluded. Patients’ information, including gender, age, WT, serum creatinine (Scr), CCR, ALB, APACHE-II, infection diagnosis, and pathogenic bacteria, were obtained from the electronic system for medical records. CCR was generated by adopting the Cockcroft—Gault equation with WT and age ([Cucci et al., 2022]). The Ethical Committees of the Second Affiliated Hospital of the South China University of Technology authorized the study (K-2022-020-01).
Patients were treated with polymyxin B, and plasma samples were collected ≥ 48 h after the treatment. Each patient contributed clinical samples, of which 37.5% (n = 24) were sampled with troughs (within 1 h before administration), 35.9% (n = 23) were sampled with peaks (within 1 h after the end of the infusion), and 26.6% (n = 17) were sampled at 6-8 h after the infusion. The dosing regimens of polymyxin B were a loading dose of 100 mg–150 mg and a maintenance dose of 50 mg–75 mg q12h, and the infusion duration was about 1–2 h. In preparation for analysis, samples were centrifuged for 10 min at 3000 r min^-1 after collection, and the upper plasma after centrifugation was stored at −20°C.
According to previous studies, total polymyxin B1, polymyxin B2, and polymyxin B1-Ile concentrations in human blood plasma were quantified using LC-MS/MS ([Meng et al., 2016]; [Hee et al., 2017]). The standard used in our experiments was the USP standard with the batch number of R104F0. The chromatographic column was the Kinetex C18 (3 μm × 2.1 mm×100 mm. Phenomenex). A: B mobile phase was 0.1% formic acid to acetonitrile. With changes in the linear velocity ratio, gradient elution was as follows: 15% −15% B, 0–2.0 min; 15%–10% B, 2.01–4.0 min; 10%–30% B, 4.01–5.0 min; 15% B, 5.01 min; and 15%–15% B, 5.02–10 min. The flow rate was constrained to 0.8 mL min^-1, and the column temperature was set to 40°C. The parent/daughter ion mass ratios used in the mass spectrometry were m/z 602.6/241.2 (polymyxin B1 and B1-Ile) and m/z 595.6/202.1 (polymyxin B2). Plasma samples (100 μL) were collected from centrifuged blood samples, mixed with 500 μL precipitant (acetonitrile with 6.67% formic acid) and vortexed well for 1 min. The lower limit of quantification (LLOQ) of the bioanalytical method used for quantifying polymyxin B1, B2, and B1-Ile concentrations was 0.19, 0.02 and 0.02 mg L^-1, respectively. The linear relationships of polymyxin B1, B2, and B1-Ile concentrations in the range of 0.19–24.13 mg L^-1, 0.02–2.7 mg L^-1 and 0.02–2.38 mg L^-1 were considered good (R^2 = 0.99677, R^2 = 0.99656, R^2 = 0.99484) and the accuracy was within 95.3%–105.3%, 92.2%–104.8%, and 95.8%–105.4%. […] Finally, 200 μL of the supernatant from the centrifugation of the combination at 14,000 r min^-1 for 10 min was employed to measure the amounts of polymyxin B.

CC[C@H](C)CCCCC(=O)N[C@@H](CCN)C(=O)N[C@H](C(=O)N[C@@H](CCN)C(=O)N[C@H]1CCNC(=O)[C@H]([C@@H](C)O)NC(=O)[C@H](CCN)NC(=O)[C@H](CCN)NC(=O)[C@H](CC(C)C)NC(=O)[C@@H](Cc2ccccc2)NC(=O)[C@H](CCN)NC1=O)[C@@H](C)O [polymyxin B] (X1-[Dab]T[Dab][Dab][Dab][dF]L[Dab][Dab]T; lactam 4-C)
level at 47.67 h (50 mg, patient ID 2, TIME 47.67, DOSE 50 every 12 from 0 to 36, DUR 1, WT 56, CCR 34.05, ALB 30.1, APACHE 20, single sample): 3.02 µg/mL | level at 50 h (50 mg, patient ID 6, TIME 50, DOSE 50 every 12 from 0 to 48, DUR 1, WT 60, CCR 81.34, ALB 36.6, APACHE 18, single sample): 4.48 µg/mL | level at 300 h (50 mg, patient ID 7, TIME 300, DOSE 50 from 0, ADDL 25, II 12, DUR 1, WT 52, CCR 121.16, ALB 32.1, APACHE 21, single sample): 2.64 µg/mL | level at 301 h (50 mg, patient ID 7, TIME 301, DOSE 50 from 0, ADDL 25, II 12, DUR 1, WT 52, CCR 121.16, ALB 32.1, APACHE 21, single sample): 7.72 µg/mL | level at 306.5 h (50 mg, patient ID 7, TIME 306.5, DOSE 50 from 0, ADDL 25, II 12, DUR 1, WT 52, CCR 121.16, ALB 32.1, APACHE 21, single sample): 4.19 µg/mL | level at 133.6 h (50 mg, patient ID 9, TIME 133.6, DOSE 50 from 0, ADDL 11, II 12, DUR 1, WT 55, CCR 34.79, ALB 30.8, APACHE 15, single sample): 3.74 µg/mL | level at 139 h (50 mg, patient ID 9, TIME 139, DOSE 50 from 0, ADDL 11, II 12, DUR 1, WT 55, CCR 34.79, ALB 30.8, APACHE 15, single sample): 3.19 µg/mL | level at 145 h (50 mg, patient ID 9, TIME 145, DOSE 50 from 0, ADDL 11, II 12, DUR 1, WT 55, CCR 34.79, ALB 30.8, APACHE 15, single sample): 2.89 µg/mL | level at 195 h (50 mg, patient ID 15, TIME 195, DOSE 50 every 12 from 133 (DUR 1, ADDL 11), WT 50, CCR 35.85, ALB 29.5, APACHE 39, single measurement): 4.6 µg/mL | level at 207 h (50 mg, patient ID 15, TIME 207, DOSE 50 every 12 from 133 (DUR 1, ADDL 11), WT 50, CCR 35.85, ALB 29.5, APACHE 39, single measurement): 2.25 µg/mL | level at 266.25 h (50 mg, patient ID 15, TIME 266.25, DOSE 50 every 12 from 133 (DUR 1, ADDL 11), WT 50, CCR 35.85, ALB 29.5, APACHE 39, single measurement): 4.87 µg/mL | level at 277 h (50 mg, patient ID 15, TIME 277, DOSE 50 every 12 from 133 (DUR 1, ADDL 11), WT 50, CCR 35.85, ALB 29.5, APACHE 39, single measurement): 2.42 µg/mL | level at 169.25 h (50 mg, patient ID 16, TIME 169.25, DOSE 50 every 12 from 0 (DUR 2, ADDL 14), WT 65, CCR 75.18, ALB 32, APACHE 31, single measurement): 6.98 µg/mL | level at 174 h (50 mg, patient ID 16, TIME 174, DOSE 50 every 12 from 0 (DUR 2, ADDL 14), WT 65, CCR 75.18, ALB 32, APACHE 31, single measurement): 2.97 µg/mL | level at 179 h (50 mg, patient ID 16, TIME 179, DOSE 50 every 12 from 0 (DUR 2, ADDL 14), WT 65, CCR 75.18, ALB 32, APACHE 31, single measurement): 2.46 µg/mL | level at 120 h (50 mg, patient ID 17, TIME 120, DOSE 50 every 12 from 0 (DUR 1, ADDL 10), WT 75, CCR 55.08, ALB 38.8, APACHE 22, single measurement): 4.53 µg/mL | level at 121.48 h (50 mg, patient ID 17, TIME 121.48, DOSE 50 every 12 from 0 (DUR 1, ADDL 10), WT 75, CCR 55.08, ALB 38.8, APACHE 22, single measurement): 2.35 µg/mL | level at 62.5 h (50 mg, patient ID 18, TIME 62.5, DOSE 50 at 0, 12, 24, 36, 48, 60, DUR 2, WT 80, CCR 169.94, ALB 41.5, APACHE 29, single measurement): 4.86 µg/mL | level at 66 h (50 mg, patient ID 18, TIME 66, DOSE 50 at 0, 12, 24, 36, 48, 60, DUR 2, WT 80, CCR 169.94, ALB 41.5, APACHE 29, single measurement): 1.8 µg/mL | level at 72 h (50 mg, patient ID 18, TIME 72, DOSE 50 at 0, 12, 24, 36, 48, 60, DUR 2, WT 80, CCR 169.94, ALB 41.5, APACHE 29, single measurement): 0.839 µg/mL | level at 97 h (75 mg, patient ID 12, TIME 97, DOSE 75 from 0, ADDL 9, II 12, DUR 1, WT 60, CCR 104.47, ALB 33.9, APACHE 24, single sample): 9.56 µg/mL | level at 102 h (75 mg, patient ID 12, TIME 102, DOSE 75 from 0, ADDL 9, II 12, DUR 1, WT 60, CCR 104.47, ALB 33.9, APACHE 24, single sample): 4.84 µg/mL | level at 108 h (75 mg, patient ID 12, TIME 108, DOSE 75 from 0, ADDL 9, II 12, DUR 1, WT 60, CCR 104.47, ALB 33.9, APACHE 24, single sample): 2.99 µg/mL | level at 74.33 h (75 mg, patient ID 15, TIME 74.33, after DOSE 75 at 73 (DUR 1, ADDL 4, II 12), WT 50, CCR 35.85, ALB 29.5, APACHE 39, single measurement): 8.9 µg/mL | level at 217 h (75 mg, patient ID 22, TIME 217, DOSE 75 every 12 from 0 (ADDL 18), DUR 1, WT 60, CCR 155.65, ALB 24.3, APACHE 30, single measurement): 3.62 µg/mL | level at 222 h (75 mg, patient ID 22, TIME 222, DOSE 75 every 12 from 0 (ADDL 18), DUR 1, WT 60, CCR 155.65, ALB 24.3, APACHE 30, single measurement): 2.06 µg/mL | level at 228 h (75 mg, patient ID 22, TIME 228, DOSE 75 every 12 from 0 (ADDL 18), DUR 1, WT 60, CCR 155.65, ALB 24.3, APACHE 30, single measurement): 1.06 µg/mL | level at 60.5 h (patient ID 1, TIME 60.5, DOSE 100 at 0 then 50 every 12 to 48, DUR 1, WT 58, CCR 69.29, ALB 23.1, APACHE 30, single sample): 2.27 µg/mL
